Results as given in PubChem BioAssay AID330 (DTP/NCI, 2004).
Where “and” joins values, the source holds several entries; their conditions need not be identical. Equal values may be shown once. Toxic doses and inconclusive results are not listed. Peptide text beside a SMILES is read from it.

Tested on: P388 leukemia ip, CD2F1 mice, survival T/C
Assay: NCI In Vivo Anticancer Drug Screen. Data for tumor model P388 Leukemia (intraperitoneal) in CD2F1 (CDF1) mice
Conditions: endpoint: median survival time, higher = longer survival
Procedure, shortened: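 Mice carrying the transplanted tumor received test compound or vehicle. Survival was recorded in each group, and the value is the treated-group measurement divided by that of the vehicle-treated control group.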

[1] = dose: 50.0 mg/kg/injection, schedule: Q01DX009 (ip), vehicle: Klucel (hydroxypropylcellulose) (HPC)
[2] = dose: 100.0 mg/kg/injection, schedule: Q01DX009 (ip), vehicle: Klucel (hydroxypropylcellulose) (HPC)
[3] = dose: 200.0 mg/kg/injection, schedule: Q01DX009 (ip), vehicle: Klucel (hydroxypropylcellulose) (HPC)
[4] = dose: 60.0 mg/kg/injection, schedule: Q01DX005 (ip), vehicle: saline with Tween-80
[5] = dose: 120.0 mg/kg/injection, schedule: Q01DX005 (ip), vehicle: saline with Tween-80
[6] = dose: 50.0 mg/kg/injection, schedule: Q01DX005 (ip), vehicle: saline with Tween-80
[7] = dose: 100.0 mg/kg/injection, schedule: Q01DX001 (ip), vehicle: Klucel (hydroxypropylcellulose) (HPC)
[8] = dose: 200.0 mg/kg/injection, schedule: Q01DX001 (ip), vehicle: Klucel (hydroxypropylcellulose) (HPC)
[9] = dose: 400.0 mg/kg/injection, schedule: Q01DX001 (ip), vehicle: Klucel (hydroxypropylcellulose) (HPC)

In the case of `COc1cc2cc[n+]3c(C)c4ccc(OC)c(OC)c4cc3c2cc1OC` (tested in a mixture with another compound), the T/C (dose: 20.0 mg/kg/injection, schedule: Q01DX009 (ip), vehicle: saline) is reported as 150 % of control and the T/C (dose: 40.0 mg/kg/injection, schedule: Q01DX009 (ip), vehicle: saline) is reported as 154 % of control and 166 % of control.

In the case of `Nc1nc(Nc2ccccc2)n[nH]1`, the T/C [1] is reported as 102 % of control, the T/C [2] is reported as 102 % of control and the T/C [3] is reported as 94 % of control.

`COc1ccc(O)c(CN2CCN(Cc3cc(OC)ccc3O)CC2)c1` was tested, and the T/C (dose: 15.0 mg/kg/injection, schedule: Q01DX005 (ip), vehicle: saline with Tween-80) was 91 % of control and the T/C (dose: 30.0 mg/kg/injection, schedule: Q01DX005 (ip), vehicle: saline with Tween-80) was 86 % of control.

With `O=c1[nH]nc(-c2ccc(Cl)cc2)c2c1[nH]c1ccccc12` the T/C [4] was 98 % of control and the T/C [5] was 97 % of control.

For `NC(N)=NCC[C@H](N)C(=O)O`, the T/C (dose: 50.0 mg/kg/injection, schedule: Q01DX005 (ip), vehicle: saline) was 104 % of control, the T/C (dose: 100.0 mg/kg/injection, schedule: Q01DX005 (ip), vehicle: saline) was 104 % of control and the T/C (dose: 200.0 mg/kg/injection, schedule: Q01DX005 (ip), vehicle: saline) was 97 % of control.

In the case of `N=C(N)N=Nc1ccc(O)cc1`, the T/C [5] is reported as 119 % of control.

`O=C(/C(=C\c1ccc(F)cc1)S(=O)(=O)c1ccc(F)cc1)c1ccccc1` was tested, and the T/C [6] was 110 % of control, the T/C (dose: 100.0 mg/kg/injection, schedule: Q01DX005 (ip), vehicle: saline with Tween-80) was 102 % of control and the T/C (dose: 200.0 mg/kg/injection, schedule: Q01DX005 (ip), vehicle: saline with Tween-80) was 103 % of control.

`CC(=O)OCc1ccc(O)c(C=O)c1` was tested, and the T/C (dose: 12.5 mg/kg/injection, schedule: Q01DX005 (ip), vehicle: saline with Tween-80) was 118 % of control and the T/C [6] was 113 % of control.

In the case of `NC(N)=NS(=O)(=O)c1ccc(N2C(=O)CC3(CCCC3)C2=O)cc1`, the T/C [1] is reported as 99 % of control, the T/C [2] is reported as 98 % of control and the T/C [3] is reported as 112 % of control.

With `Nc1nc2c(ncn2C2OC(CO)C(O)C2O)c(=O)[nH]1` (configuration not stated) the T/C (dose: 25.0 mg/kg/injection, schedule: Q04DX003 (ip), vehicle: saline with Tween-80) was 103 % of control and 106 % of control, the T/C (dose: 50.0 mg/kg/injection, schedule: Q04DX003 (ip), vehicle: saline with Tween-80) was 120 % of control and the T/C (dose: 100.0 mg/kg/injection, schedule: Q01DX009 (ip), vehicle: suspension in saline) was 110 % of control. The T/C (dose: 100.0 mg/kg/injection, schedule: Q04DX003 (ip), vehicle: saline with Tween-80) was 90 % of control, the T/C (dose: 200.0 mg/kg/injection, schedule: Q01DX009 (ip), vehicle: saline with Tween-80) was 111 % of control and the T/C (dose: 200.0 mg/kg/injection, schedule: Q01DX009 (ip), vehicle: suspension in saline) was 92 % of control. For the same compound, the T/C (dose: 300.0 mg/kg/injection, schedule: Q01DX009 (ip), vehicle: saline with Tween-80) was 106 % of control, the T/C (dose: 400.0 mg/kg/injection, schedule: Q01DX009 (ip), vehicle: saline with Tween-80) was 102 % of control and the T/C (dose: 400.0 mg/kg/injection, schedule: Q01DX009 (ip), vehicle: suspension in saline) was 119 % of control and 97 % of control. For the same compound, the T/C (dose: 400.0 mg/kg/injection, schedule: Q04DX003 (ip), vehicle: saline with Tween-80) was 100 % of control, the T/C (dose: 600.0 mg/kg/injection, schedule: Q01DX009 (ip), vehicle: saline with Tween-80) was 90 % of control and the T/C (dose: 800.0 mg/kg/injection, schedule: Q01DX009 (ip), vehicle: saline with Tween-80) was 114 % of control. For the same compound, the T/C (dose: 800.0 mg/kg/injection, schedule: Q01DX009 (ip), vehicle: suspension in saline) was 113 % of control and 94 % of control, the T/C (dose: 1200.0 mg/kg/injection, schedule: Q01DX009 (ip), vehicle: saline with Tween-80) was 95 % of control and the T/C (dose: 1600.0 mg/kg/injection, schedule: Q01DX009 (ip), vehicle: saline with Tween-80) was 99 % of control. For the same compound, the T/C (dose: 1600.0 mg/kg/injection, schedule: Q01DX009 (ip), vehicle: suspension in saline) was 112 % of control and 95 % of control, the T/C (dose: 2400.0 mg/kg/injection, schedule: Q01DX009 (ip), vehicle: saline with Tween-80) was 100 % of control and the T/C (dose: 2400.0 mg/kg/injection, schedule: Q01DX009 (ip), vehicle: suspension in saline) was 117 % of control.

In the case of `CN(C)CCC(OC(=O)c1ccccc1Cl)c1ccccc1` (configuration not stated), the T/C (dose: 25.0 mg/kg/injection, schedule: Q01DX009 (ip), vehicle: saline) is reported as 99 % of control and 100 % of control and 101 % of control, the T/C (dose: 50.0 mg/kg/injection, schedule: Q01DX009 (ip), vehicle: saline) is reported as 101 % of control and 107 % of control and 117 % of control and the T/C (dose: 100.0 mg/kg/injection, schedule: Q01DX009 (ip), vehicle: saline) is reported as 108 % of control and 116 % of control.

With `CCO/C=C1N=C(/C=C/c2ccc(Cl)cc2)OC/1=O` the T/C [4] was 91 % of control and the T/C [5] was 90 % of control.

With `NC(Cc1ccccc1)C(=O)NC(CC(=O)O)C(=O)O` (stereo not drawn) (H-Phe-Asp-OH; configuration not given here) the T/C (dose: 50.0 mg/kg/injection, schedule: Q01DX005 (ip), vehicle: Klucel (hydroxypropylcellulose) (HPC)) was 99 % of control, the T/C (dose: 100.0 mg/kg/injection, schedule: Q01DX005 (ip), vehicle: Klucel (hydroxypropylcellulose) (HPC)) was 99 % of control and the T/C (dose: 200.0 mg/kg/injection, schedule: Q01DX005 (ip), vehicle: Klucel (hydroxypropylcellulose) (HPC)) was 109 % of control.

For `COc1cccc2c1C(=O)c1c(OC)c(C)cc(OC)c1C2=O`, the T/C (dose: 1.56 mg/kg/injection, schedule: Q01DX009 (ip), vehicle: water) was 100 % of control, the T/C (dose: 3.13 mg/kg/injection, schedule: Q01DX009 (ip), vehicle: water) was 107 % of control and the T/C (dose: 6.25 mg/kg/injection, schedule: Q01DX009 (ip), vehicle: water) was 110 % of control. For the same compound, the T/C (dose: 12.5 mg/kg/injection, schedule: Q01DX009 (ip), vehicle: water) was 110 % of control and the T/C (dose: 25.0 mg/kg/injection, schedule: Q01DX009 (ip), vehicle: water) was 110 % of control.

`CCCCCCCCCCCCCCCC(=O)OCC(COP(=O)(O)OC1CCC2(C)C(=CCC3C2CCC2(C)C(C(C)CCCC(C)C)CCC32)C1)OC(=O)CCCCCCCCCCCCCCC` (configuration not stated) was tested, and the T/C [7] was 97 % of control, the T/C [8] was 99 % of control and the T/C [9] was 96 % of control.

With `COc1ccc(C(=O)C(=O)c2ccc(OC)cc2)cc1` the T/C (dose: 60.0 mg/kg/injection, schedule: Q01DX005 (ip), vehicle: Klucel (hydroxypropylcellulose) (HPC)) was 99 % of control, the T/C (dose: 120.0 mg/kg/injection, schedule: Q01DX005 (ip), vehicle: Klucel (hydroxypropylcellulose) (HPC)) was 98 % of control and the T/C (dose: 240.0 mg/kg/injection, schedule: Q01DX005 (ip), vehicle: Klucel (hydroxypropylcellulose) (HPC)) was 100 % of control.

In the case of `CCCN=Cc1cc(Cc2ccc(O)c(C=NCCC)c2)ccc1O`, the T/C (dose: 50.0 mg/kg/injection, schedule: Q04DX003 (ip), vehicle: Klucel (hydroxypropylcellulose) (HPC)) is reported as 123 % of control and the T/C (dose: 100.0 mg/kg/injection, schedule: Q04DX003 (ip), vehicle: Klucel (hydroxypropylcellulose) (HPC)) is reported as 104 % of control and 119 % of control.

For `Fc1cccc(-n2nc3c(c2-c2cccnc2)CCCc2ccccc2-3)c1`, the T/C [7] was 106 % of control, the T/C [8] was 102 % of control and the T/C [9] was 106 % of control.

`COc1cccc2c1C(=O)c1c(O)c3c(c(O)c1C2=O)CC(O)(C(=O)CO)CC3OC1CC(NC(=O)C(F)(F)F)C(OC2CC(N)C(O)C(C)O2)C(C)O1` (configuration not stated) was tested, and the T/C (dose: 3.13 mg/kg/injection, schedule: Q04DX003 (ip), vehicle: water) was 109 % of control, the T/C (dose: 12.5 mg/kg/injection, schedule: Q04DX003 (ip), vehicle: water) was 119 % of control and the T/C (dose: 25.0 mg/kg/injection, schedule: Q04DX003 (ip), vehicle: water) was 113 % of control. The T/C (dose: 50.0 mg/kg/injection, schedule: Q04DX003 (ip), vehicle: water) was 117 % of control.

In the case of `O=c1c2cnc(-c3ccccc3)nc2oc2ccc3ccccc3c12`, the T/C (dose: 12.5 mg/kg/injection, schedule: Q01DX009 (ip), vehicle: saline with Tween-80) is reported as 97 % of control, the T/C (dose: 25.0 mg/kg/injection, schedule: Q01DX009 (ip), vehicle: saline with Tween-80) is reported as 96 % of control and the T/C (dose: 50.0 mg/kg/injection, schedule: Q01DX009 (ip), vehicle: saline with Tween-80) is reported as 87 % of control and 92 % of control. The T/C (dose: 100.0 mg/kg/injection, schedule: Q01DX009 (ip), vehicle: saline with Tween-80) was 90 % of control.

`COc1cccc(-c2nsc(=O)o2)c1` was tested, and the T/C [2] was 108 % of control and the T/C [3] was 109 % of control.

For `Nc1nc(N)c(-c2ccc(Cl)c(Cl)c2)c(CP(Cl)(Cl)(Cl)Br)n1`, the T/C (dose: 6.25 mg/kg/injection, schedule: Q01DX009 (ip), vehicle: Klucel (hydroxypropylcellulose) (HPC)) was 96 % of control, the T/C (dose: 12.5 mg/kg/injection, schedule: Q01DX009 (ip), vehicle: Klucel (hydroxypropylcellulose) (HPC)) was 104 % of control and the T/C (dose: 25.0 mg/kg/injection, schedule: Q01DX009 (ip), vehicle: Klucel (hydroxypropylcellulose) (HPC)) was 109 % of control. For the same compound, the T/C [1] was 114 % of control.
